The structures appear in SMILES notation.

Among the data in patent US20260028328A1, “HETEROARYL DERIVATIVES AS DDRs INHIBITORS” (CHIESI FARMACEUTICI S.P.A., priority 2022, published 2026) are Ki values, retold here.

For experiment [1], the target named is DDR2 (Homo sapiens (Human), UniProt Q16832). The experiment in a line: DDR2 binding assay (LanthaScreen Europium Kinase Binding assay). The conditions noted are these: 5 nM DDR2, 10 nM Kinase Tracer 178, 1 h at rt; Ki from IC50 by Cheng-Prusoff; read-out: Ki DDR2. The protocol:
(§1) DDR1 and DDR2 binding assays were performed using Life Technologies LanthaScreen™ Europium Kinase Binding assay. The compounds were incubated with 5 nM DDR1 (Carna Biosciences) or 5 nM DDR2 (Life Technologies) for 1 h at rt in white 384-well OptiPlate (PerkinElmer), containing 20 nM or 10 nM Kinase Tracer 178 respectively and 2 nM Europium labelled anti-GST antibody (Life Technologies) in assay buffer (50 mM HEPES pH 7.5, 10 mM MgCI2, 1 mM EGTA and 0.01% BRIJ35). The ratio of fluorescence emission 665 nm/615 nm after excitation at 340 nm was obtained using the Tecan Spark 20M plate reader. IC50 values were determined in GraphPad Prism 7.0 software, using 4 parameter model: log(inhibitor) vs. response. IC50 values were converted in Ki using the Cheng-Prusoff equation (Ki=IC50/(1+[Tracer]/Kd).

Experiment [2] addresses DDR1 (Homo sapiens (Human), UniProt Q08345). Description: DDR1 binding assay (LanthaScreen Europium Kinase Binding assay). The conditions noted are these: 5 nM DDR1, 20 nM Kinase Tracer 178, 1 h at rt; Ki from IC50 by Cheng-Prusoff; read-out: Ki DDR1. Here is the method: as §1

Sequence of DDR2 (Q16832 22-855): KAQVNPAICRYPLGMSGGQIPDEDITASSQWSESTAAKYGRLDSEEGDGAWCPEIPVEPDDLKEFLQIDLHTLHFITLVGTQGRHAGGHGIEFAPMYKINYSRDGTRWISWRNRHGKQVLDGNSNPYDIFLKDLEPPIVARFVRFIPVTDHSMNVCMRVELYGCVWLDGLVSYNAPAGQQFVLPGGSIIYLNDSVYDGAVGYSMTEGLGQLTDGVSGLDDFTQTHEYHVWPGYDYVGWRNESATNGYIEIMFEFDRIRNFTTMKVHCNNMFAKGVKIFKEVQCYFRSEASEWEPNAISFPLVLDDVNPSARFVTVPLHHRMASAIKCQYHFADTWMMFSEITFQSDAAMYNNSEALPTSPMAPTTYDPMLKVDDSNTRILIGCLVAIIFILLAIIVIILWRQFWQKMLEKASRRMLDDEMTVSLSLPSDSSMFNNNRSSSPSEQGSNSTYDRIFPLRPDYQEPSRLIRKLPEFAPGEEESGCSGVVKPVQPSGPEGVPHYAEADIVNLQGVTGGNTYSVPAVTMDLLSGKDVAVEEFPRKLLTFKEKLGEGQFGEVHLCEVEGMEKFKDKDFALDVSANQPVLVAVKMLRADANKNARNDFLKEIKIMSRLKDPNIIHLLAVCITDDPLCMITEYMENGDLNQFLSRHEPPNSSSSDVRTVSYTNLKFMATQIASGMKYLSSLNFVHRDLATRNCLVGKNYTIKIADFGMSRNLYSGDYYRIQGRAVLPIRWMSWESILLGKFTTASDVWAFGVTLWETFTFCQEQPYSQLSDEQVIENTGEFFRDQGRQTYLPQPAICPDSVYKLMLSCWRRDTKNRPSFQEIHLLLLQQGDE
Sequence of DDR1 (Q08345 19-913): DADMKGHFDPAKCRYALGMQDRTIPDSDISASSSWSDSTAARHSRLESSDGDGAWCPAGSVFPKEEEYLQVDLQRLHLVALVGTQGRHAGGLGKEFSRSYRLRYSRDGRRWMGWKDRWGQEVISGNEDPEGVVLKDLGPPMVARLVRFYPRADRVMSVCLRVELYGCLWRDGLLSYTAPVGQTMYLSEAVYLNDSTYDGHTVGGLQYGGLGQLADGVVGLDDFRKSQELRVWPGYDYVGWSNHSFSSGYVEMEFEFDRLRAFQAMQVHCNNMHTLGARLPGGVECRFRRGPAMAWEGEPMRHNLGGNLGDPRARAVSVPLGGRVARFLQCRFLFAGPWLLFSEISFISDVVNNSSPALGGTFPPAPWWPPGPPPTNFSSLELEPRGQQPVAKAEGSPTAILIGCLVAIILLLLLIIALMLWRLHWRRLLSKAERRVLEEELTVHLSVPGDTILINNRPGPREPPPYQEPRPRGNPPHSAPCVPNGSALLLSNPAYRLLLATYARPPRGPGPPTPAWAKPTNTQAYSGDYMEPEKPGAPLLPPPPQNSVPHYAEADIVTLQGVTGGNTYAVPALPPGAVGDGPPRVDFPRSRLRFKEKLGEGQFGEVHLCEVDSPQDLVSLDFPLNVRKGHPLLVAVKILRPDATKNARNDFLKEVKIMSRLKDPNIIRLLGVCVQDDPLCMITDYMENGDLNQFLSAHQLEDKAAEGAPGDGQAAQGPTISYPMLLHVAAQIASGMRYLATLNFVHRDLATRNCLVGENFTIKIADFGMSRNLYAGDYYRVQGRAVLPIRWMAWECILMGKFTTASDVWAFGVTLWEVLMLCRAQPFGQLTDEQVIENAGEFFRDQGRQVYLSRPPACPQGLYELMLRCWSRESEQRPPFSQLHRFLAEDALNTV

As to `Cc1ccc(C(=O)Nc2cc(C(C)(C)C)on2)cc1OC1CN(c2cnn3ccncc23)C1` [Example 155, N-(5-(tert-butyl)isoxazol-3-yl)-4-methyl-3-((1-(pyrazolo[1,5-a]pyrazin-3-yl)azetidin-3-yl)oxy)benzamide], the Ki in experiment [1] and in experiment [2] was under 5 nM throughout.
`CCc1cc(NC(=O)c2ccc(C)c(OC3CN(c4cnn5ccncc45)C3)c2)no1` [Example 152, N-(5-ethylisoxazol-3-yl)-4-methyl-3-((1-(pyrazolo[1,5-a]pyrazin-3-yl)azetidin-3-yl)oxy)benzamide]: the Ki in experiment [1] lay in the range of 25 to 100 nM; in experiment [2], 5 to 25 nM.
Consider `Cc1ccc(OC(F)(F)F)cc1NC(=O)c1ccc(C)c(OC2CN(c3cnn4ccncc34)C2)c1` [Example 159, 4-methyl-N-(2-methyl-5-(trifluoromethoxy)phenyl)-3-((1-(pyrazolo[1,5-a]pyrazin-3-yl)azetidin-3-yl)oxy)benzamide], for which the figures for the Ki in experiment [1] and in experiment [2] were 5 to 25 nM and under 5 nM, respectively.
For `CC(=O)Nc1cncc(N2CC(Oc3cc(C(=O)Nc4cncc(C(F)(F)F)c4)ccc3C)C2)c1` [Example 145, 3-((1-(5-acetamidopyridin-3-yl)azetidin-3-yl)oxy)-4-methyl-N-(5-(trifluoromethyl)pyridin-3-yl)benzamide], in that order: under 5 nM and under 5 nM.
On the same counts, the results for `Cc1ccc(C(=O)Nc2cncc(C(F)(F)F)c2)cc1NC1CN(c2cncc(-c3cnn(C)c3)c2)C1` [Example 144, 4-methyl-3-((1-(5-(1-methyl-1H-pyrazol-4-yl)pyridin-3-yl)azetidin-3-yl)amino)-N-(5-(trifluoromethyl)pyridin-3-yl)benzamide] are 5 to 25 nM and under 5 nM.
As to `Cc1ccc(C(=O)Nc2cncc(C(F)(F)F)c2)cc1OC1CN(c2cnn3ccc(N4CCN(C)CC4)nc23)C1` [Example 166, 4-methyl-3-((1-(5-(4-methylpiperazin-1-yl)pyrazolo[1,5-a]pyrimidin-3-yl)azetidin-3-yl)oxy)-N-(5-(trifluoromethyl)pyridin-3-yl)benzamide], the values for the Ki in experiment [1] and in experiment [2] were 5 to 25 nM and under 5 nM, respectively.
Turning to `O=C(Nc1cncc(C(F)(F)F)c1)c1ccc(OC(F)F)c(NC2CN(c3cnn4ccncc34)C2)c1` [Example 181, 4-(difluoromethoxy)-3-((1-(pyrazolo[1,5-a]pyrazin-3-yl)azetidin-3-yl)amino)-N-(5-(trifluoromethyl)pyridin-3-yl)benzamide], the Ki in experiment [1] is 5 to 25 nM; in experiment [2], under 5 nM.
On the same counts, the results for `Cc1ccc(C(=O)Nc2cncc(C(F)(F)F)c2)cc1NC1CN(c2cncnc2)C1` [Example 134, 4-methyl-3-((1-(pyrimidin-5-yl)azetidin-3-yl)amino)-N-(5-(trifluoromethyl)pyridin-3-yl)benzamide] are 25 to 100 nM and 5 to 25 nM.
On the same counts, the results for `COc1ccc(C(=O)Nc2cncc(C(F)(F)F)c2)cc1NC1CN(c2cnn3ccncc23)C1` [Example 183, 4-methoxy-3-((1-(pyrazolo[1,5-a]pyrazin-3-yl)azetidin-3-yl)amino)-N-(5-(trifluoromethyl)pyridin-3-yl)benzamide] are 5 to 25 nM and under 5 nM.
On the same counts, the results for `Cc1ccc(C(=O)Nc2cncc(C(F)(F)F)c2)cc1OC1CN(c2ncnc3[nH]cc(C#N)c23)C1` [Example 173, 3-((1-(5-cyano-7H-pyrrolo[2,3-d]pyrimidin-4-yl)azetidin-3-yl)oxy)-4-methyl-N-(5-(trifluoromethyl)pyridin-3-yl)benzamide] are 5 to 25 nM and under 5 nM.
Consider `Cc1ccc(C(=O)Nc2cc(C(C)(C)C)nn2C)cc1OC1CN(c2cnn3ccncc23)C1` [Example 163, N-(3-(tert-butyl)-1-methyl-1H-pyrazol-5-yl)-4-methyl-3-((1-(pyrazolo[1,5-a]pyrazin-3-yl)azetidin-3-yl)oxy)benzamide], for which the Ki in experiment [1] and in experiment [2] was 5 to 25 nM throughout.
With `Cc1ccc(C(=O)Nc2cncc(C(F)(F)F)c2)cc1CC1CN(c2cnn3ccncc23)C1` [Example 171, 4-methyl-3-((1-(pyrazolo[1,5-a]pyrazin-3-yl)azetidin-3-yl)methyl)-N-(5-(trifluoromethyl)pyridin-3-yl)benzamide], the Ki in experiment [1] and in experiment [2] was under 5 nM each time.
With `Cc1ccc(C(=O)Nc2cncc(C(F)(F)F)c2)cc1C(C)C1CN(c2cnn3ccncc23)C1` (stereo not shown) [Example 172, 4-methyl-3-(1-(1-(pyrazolo[1,5-a]pyrazin-3-yl)azetidin-3-yl)ethyl)-N-(5-(trifluoromethyl)pyridin-3-yl)benzamide], the Ki was 5 to 25 nM in experiment [1] and under 5 nM in experiment [2].
On the same counts, the results for `Cc1ccc(C(=O)Nc2cc(C(C)(C)C)n(C)n2)cc1NC1CN(c2cnn3ccncc23)C1` [Example 156, N-(5-(tert-butyl)-1-methyl-1H-pyrazol-3-yl)-4-methyl-3-((1-(pyrazolo[1,5-a]pyrazin-3-yl)azetidin-3-yl)amino)benzamide] are 5 to 25 nM and under 5 nM.
`Cc1ccc(C(=O)Nc2cncc(C(F)(F)F)c2)cc1OC1CN(c2cncc(C(N)=O)c2)C1` [Example 139, 5-(3-(2-methyl-5-((5-(trifluoromethyl)pyridin-3-yl)carbamoyl)phenoxy)azetidin-1-yl)nicotinamide]: the Ki in experiment [1] lay in the range of 5 to 25 nM.
Consider `Cc1ccn2ncc(N3CC(Oc4cc(C(=O)Nc5cncc(C(F)(F)F)c5)ccc4C)C3)c2n1` [Example 167, 4-methyl-3-((1-(5-methylpyrazolo[1,5-a]pyrimidin-3-yl)azetidin-3-yl)oxy)-N-(5-(trifluoromethyl)pyridin-3-yl)benzamide], for which the Ki was 5 to 25 nM in experiment [1] and under 5 nM in experiment [2].
On the same counts, the results for `Cc1ccc(C(=O)Nc2cncc(C(F)(F)F)c2)cc1OC1CN(c2cnn3ccccc23)C1` [Example 168, 4-methyl-3-((1-(pyrazolo[1,5-a]pyridin-3-yl)azetidin-3-yl)oxy)-N-(5-(trifluoromethyl)pyridin-3-yl)benzamide] are under 5 nM and under 5 nM.
On the same counts, the results for `Cc1ccc(C(=O)Nc2cncc(C(F)(F)F)c2)cc1NC1CN(c2cnn3cccnc23)C1` [Example 148, 4-methyl-3-((1-(pyrazolo[1,5-a]pyrimidin-3-yl)azetidin-3-yl)amino)-N-(5-(trifluoromethyl)pyridin-3-yl)benzamide] are 5 to 25 nM and 5 to 25 nM.
For `Cc1ccc(C(=O)Nc2cc(C(F)(F)F)ccc2Cl)cc1OC1CN(c2cnn3ccncc23)C1` [Example 160, N-(2-chloro-5-(trifluoromethyl)phenyl)-4-methyl-3-((1-(pyrazolo[1,5-a]pyrazin-3-yl)azetidin-3-yl)oxy)benzamide], in that order: 5 to 25 nM and under 5 nM.
For the molecule `Cc1ccc(C(=O)Nc2cc(F)cc(C(F)(F)F)c2)cc1OC1CN(c2cnn3ccncc23)C1` [Example 162, N-(3-fluoro-5-(trifluoromethyl)phenyl)-4-methyl-3-((1-(pyrazolo[1,5-a]pyrazin-3-yl)azetidin-3-yl)oxy)benzamide], the Ki in experiment [1] and in experiment [2] was under 5 nM each time.
As for `Cc1ccc(C(=O)Nc2cncc(C(F)(F)F)c2)cc1NC1CN(c2cnn3ccncc23)C1` [Example 140, 4-methyl-3-((1-(pyrazolo[1,5-a]pyrazin-3-yl)azetidin-3-yl)amino)-N-(5-(trifluoromethyl)pyridin-3-yl)benzamide], the Ki in experiment [1] is 5 to 25 nM; in experiment [2] it was under 5 nM.
On the same counts, the results for `Cc1ccc(C(=O)Nc2cccc(OC(F)(F)F)c2)cc1OC1CN(c2cnn3ccncc23)C1` [Example 161, 4-methyl-3-((1-(pyrazolo[1,5-a]pyrazin-3-yl)azetidin-3-yl)oxy)-N-(3-(trifluoromethoxy)phenyl)benzamide] are under 5 nM and under 5 nM.
Take `Cc1ccc(C(=O)Nc2cc(C(C)(C)C)n(C)n2)cc1OC1CN(c2cnn3ccncc23)C1` [Example 154, N-(5-(tert-butyl)-1-methyl-1H-pyrazol-3-yl)-4-methyl-3-((1-(pyrazolo[1,5-a]pyrazin-3-yl)azetidin-3-yl)oxy)benzamide]: the Ki in experiment [1] and in experiment [2] was under 5 nM each time.
As to `CC(=O)Nc1ccn2ncc(N3CC(Oc4cc(C(=O)Nc5cncc(C(F)(F)F)c5)ccc4C)C3)c2n1` [Example 138, 3-((1-(5-acetamidopyrazolo[1,5-a]pyrimidin-3-yl)azetidin-3-yl)oxy)-4-methyl-N-(5-(trifluoromethyl)pyridin-3-yl)benzamide], the values for the inhibition constant Ki in experiment [1] and in experiment [2] were 5 to 25 nM and under 5 nM, respectively.
For the molecule `Cc1ccc(C(=O)Nc2cncc(C(F)(F)F)c2)cc1C(C)C1CN(c2cnn3ccncc23)C1` (stereo not shown) [Example 176, 4-methyl-3-(1-(1-(pyrazolo[1,5-a]pyrazin-3-yl)azetidin-3-yl)ethyl)-N-(5-(trifluoromethyl)pyridin-3-yl)benzamide], in experiment [1], the Ki was 5 to 25 nM.
As for `Cc1ccc(C(=O)Nc2cncc(C(F)(F)F)c2)cc1C(C)C1CN(c2cnn3ccncc23)C1` (stereo not shown) [Example 175, 4-methyl-3-(1-(1-(pyrazolo[1,5-a]pyrazin-3-yl)azetidin-3-yl)ethyl)-N-(5-(trifluoromethyl)pyridin-3-yl)benzamide], in experiment [1], the Ki was 5 to 25 nM.
